Measurements as given in PubChem BioAssay AID210 (DTP/NCI, 2004).
Values joined by “and” are separate entries in the source; they are usually repeats but may differ in a detail not shown here. Equal values may be shown once. Inconclusive results and toxic doses are left out. *1 amine or outer side, *2 acyl side, *3 side chain or, on linkers, in order; H or OH if unused. Where a SMILES comes first, the peptide text is derived from it. Bridges are numbered along the chain shown (N, C = ends). Roman numbers before positions name the chains, in order. [ ]: non-standard residue; d: D form. Actinocin(9to1) = Cc1c2oc3c(C)ccc(C(=O)[*:1])c3nc-2c(C(=O)[*:2])c(N)c1=O; NMeV = CN[CH](C(=O)O)C(C)C; Aze = O=C(O)[CH]1CCN1; Sar = CNCC(=O)O

Tested on: CD2F1 mice, ip Colon 26 adenocarcinoma, median survival T/C
Assay: NCI In Vivo Anticancer Drug Screen. Data for tumor model Colon 26 Adenocarcinoma (intraperitoneal) in CD2F1 (CDF1) mice
Conditions: endpoint: median survival time, higher = longer survival
Experimental: The antitumor activity of compounds was measured in mice bearing transplantable tumors. Survival or tumor size were measured and the results are expressed as the measurement made in the treated group (T) divided by the measurement made in the vehicle treated control group (C). The tumor model used in this assay is Colon 26 Adenocarcinoma (intraperitoneal) in CD2F1 (CDF1) mice

[1] = dose: 12.5 mg/kg/injection, schedule: Q04DX003 (ip), vehicle: saline with Tween-80
[2] = dose: 25.0 mg/kg/injection, schedule: Q04DX003 (ip), vehicle: saline with Tween-80
[3] = dose: 50.0 mg/kg/injection, schedule: Q04DX003 (ip), vehicle: saline with Tween-80
[4] = dose: 2.0 mg/kg/injection, schedule: Q01DX009 (ip), vehicle: acid diluted with saline
[5] = dose: 4.0 mg/kg/injection, schedule: Q01DX009 (ip), vehicle: acid diluted with saline
[6] = dose: 8.0 mg/kg/injection, schedule: Q01DX009 (ip), vehicle: acid diluted with saline
[7] = dose: 16.0 mg/kg/injection, schedule: Q01DX009 (ip), vehicle: acid diluted with saline
[8] = dose: 12.5 mg/kg/injection, schedule: Q04DX003 (ip), vehicle: saline
[9] = dose: 25.0 mg/kg/injection, schedule: Q04DX003 (ip), vehicle: saline
[10] = dose: 50.0 mg/kg/injection, schedule: Q04DX003 (ip), vehicle: saline
[11] = dose: 100.0 mg/kg/injection, schedule: Q04DX003 (ip), vehicle: saline with Tween-80
[12] = dose: 200.0 mg/kg/injection, schedule: Q04DX003 (ip), vehicle: saline with Tween-80
[13] = dose: 6.25 mg/kg/injection, schedule: Q04DX003 (ip), vehicle: saline

Oc1cc2c3c(c1)c1cc4c(cc1c[n+]3CC2)OCO4
T/C (dose: 6.25 mg/kg/injection, schedule: Q04DX003 (ip), vehicle: distilled water + Tween-80): 118 % of control
T/C (dose: 100.0 mg/kg/injection, schedule: Q04DX003 (ip), vehicle: distilled water + Tween-80): 118 % of control

CN(C)CCCNc1ccc(NCCCN(C)C)c2c1C(=O)c1ccccc1C2=O
T/C (dose: 4.0 mg/kg/injection, schedule: Q01DX009 (ip), vehicle: saline): 101 % of control
T/C (dose: 8.0 mg/kg/injection, schedule: Q01DX009 (ip), vehicle: saline): 106 % of control
T/C (dose: 16.0 mg/kg/injection, schedule: Q01DX009 (ip), vehicle: saline): 100 % of control
T/C (dose: 32.0 mg/kg/injection, schedule: Q01DX009 (ip), vehicle: saline): 97 % of control

[I][Hg][CH2]C1COC([CH2][Hg][I])CO1 (stereo not given)
T/C [1]: 117 % of control
T/C [2]: 109 % of control
T/C [3]: 96 % of control

Cc1cn(C2CC3[O][Sn]([c]4ccccc4)([c]4ccccc4)[O]CC3O2)c(=O)[nH]c1=O (stereo not given)
T/C (dose: 25.0 mg/kg/injection, schedule: Q04DX002 (ip), vehicle: saline): 96 % of control
T/C (dose: 50.0 mg/kg/injection, schedule: Q04DX002 (ip), vehicle: saline): 103 % of control
T/C (dose: 100.0 mg/kg/injection, schedule: Q04DX002 (ip), vehicle: saline): 112 % of control

COc1cccc2c1C(=O)c1c(O)c3c(c(O)c1C2=O)C[C@@](O)(C(C)=O)C[C@@H]3OC1CC(N(Cc2ccccc2)Cc2ccccc2)C(O)C(C)O1 (stereo not given in full)
T/C (dose: 3.0 mg/kg/injection, schedule: Q04DX002 (ip), vehicle: saline with Tween-80): 104 % of control

COc1cccc2c1C(=O)c1c(O)c3c(c(O)c1C2=O)C[C@@](O)(/C(CO)=N/NC(=O)c1ccc(Cl)c(Cl)c1)C[C@@H]3OC1CC(N)C(O)C(C)O1 (stereo not given in full)
T/C (dose: 16.0 mg/kg/injection, schedule: Q07DX002 (iv), vehicle: saline): 92 % of control
T/C (dose: 24.0 mg/kg/injection, schedule: Q07DX002 (iv), vehicle: saline): 109 % of control
T/C (dose: 36.0 mg/kg/injection, schedule: Q07DX002 (iv), vehicle: saline): 103 % of control

NC(C/[N+]([O-])=N/O)C(=O)O (stereo not given)
T/C (dose: 8.78 mg/kg/injection, schedule: Q01DX010 (ip), vehicle: alkali diluted with saline): 99 % of control
T/C (dose: 13.2 mg/kg/injection, schedule: Q01DX010 (ip), vehicle: alkali diluted with saline): 100 % of control
T/C (dose: 19.8 mg/kg/injection, schedule: Q01DX010 (ip), vehicle: alkali diluted with saline): 96 % of control
T/C (dose: 29.6 mg/kg/injection, schedule: Q01DX010 (ip), vehicle: alkali diluted with saline): 113 % of control
T/C (dose: 44.4 mg/kg/injection, schedule: Q01DX010 (ip), vehicle: alkali diluted with saline): 104 % of control
T/C (dose: 66.7 mg/kg/injection, schedule: Q01DX010 (ip), vehicle: alkali diluted with saline): 95 % of control

NCCNc1ccc(NCCN)c2c1C(=O)c1ccccc1C2=O
T/C (dose: 1.5 mg/kg/injection, schedule: Q01DX009 (ip), vehicle: acid diluted with saline): 171 % of control
T/C [4]: 164 % of control
T/C (dose: 3.0 mg/kg/injection, schedule: Q01DX009 (ip), vehicle: acid diluted with saline): 263 % of control
T/C [5]: 175 % of control
T/C (dose: 6.0 mg/kg/injection, schedule: Q01DX009 (ip), vehicle: acid diluted with saline): 254 % of control
T/C [6]: 213 % of control
T/C (dose: 12.0 mg/kg/injection, schedule: Q01DX009 (ip), vehicle: acid diluted with saline): 214 % of control
T/C [7]: 227 % of control

CCOC(C)C(/C=N/NC(N)=S)=NNC(N)=S (stereo not given)
T/C [1]: 98 % of control
T/C [8]: 104 % of control
T/C [2]: 98 % of control
T/C [9]: 93 % of control
T/C [3]: 100 % of control
T/C [10]: 113 % of control
T/C [11]: 99 % of control
T/C [12]: 97 % of control
T/C (dose: 400.0 mg/kg/injection, schedule: Q04DX003 (ip), vehicle: saline with Tween-80): 97 % of control

Cc1c[nH]c(=O)[nH]c1=O
T/C (dose: 16.0 mg/kg/injection, schedule: Q04DX002 (ip), vehicle: Klucel (hydroxypropylcellulose) (HPC)): 97 % of control
T/C (dose: 32.0 mg/kg/injection, schedule: Q04DX002 (ip), vehicle: Klucel (hydroxypropylcellulose) (HPC)): 101 % of control
T/C (dose: 64.0 mg/kg/injection, schedule: Q04DX002 (ip), vehicle: Klucel (hydroxypropylcellulose) (HPC)): 101 % of control and 94 % of control and 96 % of control
T/C (dose: 128.0 mg/kg/injection, schedule: Q04DX002 (ip), vehicle: Klucel (hydroxypropylcellulose) (HPC)): 101 % of control and 88 % of control and 95 % of control
T/C (dose: 256.0 mg/kg/injection, schedule: Q04DX002 (ip), vehicle: Klucel (hydroxypropylcellulose) (HPC)): 110 % of control and 92 % of control and 97 % of control
T/C (dose: 512.0 mg/kg/injection, schedule: Q04DX002 (ip), vehicle: Klucel (hydroxypropylcellulose) (HPC)): 91 % of control
T/C (dose: 1024.0 mg/kg/injection, schedule: Q04DX002 (ip), vehicle: Klucel (hydroxypropylcellulose) (HPC)): 86 % of control

Cc1c2oc3c(C)ccc(C(=O)NC4C(=O)NC(C(C)C)C(=O)N5CCC5C(=O)N(C)CC(=O)N(C)C(C(C)C)C(=O)OC4C)c3nc-2c(C(=O)NC2C(=O)NC(C(C)C)C(=O)N3CCC3C(=O)N(C)CC(=O)N(C)C(C(C)C)C(=O)OC2C)c(N)c1=O (stereo not given) (I: TV[Aze][Sar][NMeV] / II: TV[Aze][Sar][NMeV]; ester I:1-I:C, II:1-II:C; linker I:N-II:N via Actinocin(9to1); configuration not given here)
T/C (dose: 270.0 micrograms/kg/injection, schedule: Q04DX003 (ip), vehicle: saline + alcohol): 114 % of control

C1OC1CN1CCN(CC2CO2)CC1 (stereo not given)
T/C (dose: 3.12 mg/kg/injection, schedule: Q04DX003 (ip), vehicle: saline): 112 % of control and 98 % of control
T/C [13]: 108 % of control and 120 % of control
T/C [9]: 167 % of control
T/C [10]: 175 % of control and 193 % of control

CN(C)/N=N/c1nc[nH]c1C(N)=O
T/C (dose: 25.0 mg/kg/injection, schedule: Q04DX003 (ip), vehicle: carboxymethylcellulose (CMC)): 112 % of control
T/C (dose: 50.0 mg/kg/injection, schedule: Q04DX003 (ip), vehicle: carboxymethylcellulose (CMC)): 120 % of control
T/C (dose: 100.0 mg/kg/injection, schedule: Q04DX003 (ip), vehicle: carboxymethylcellulose (CMC)): 122 % of control
T/C (dose: 240.0 mg/kg/injection, schedule: Q01DX001 (ip), vehicle: Klucel (hydroxypropylcellulose) (HPC)): 95 % of control
T/C (dose: 400.0 mg/kg/injection, schedule: Q01DX001 (ip), vehicle: Klucel (hydroxypropylcellulose) (HPC)): 92 % of control
T/C (dose: 400.0 mg/kg/injection, schedule: Q04DX003 (ip), vehicle: carboxymethylcellulose (CMC)): 116 % of control
T/C (dose: 600.0 mg/kg/injection, schedule: Q01DX001 (ip), vehicle: Klucel (hydroxypropylcellulose) (HPC)): 61 % of control

CC1CC2OC2/C=C\C=C\C(=O)Cc2c(Cl)c(O)cc(O)c2C(=O)O1 (stereo not given)
T/C (dose: 12.5 mg/kg/injection, schedule: Q04DX002 (ip), vehicle: Klucel (hydroxypropylcellulose) (HPC)): 94 % of control
T/C (dose: 25.0 mg/kg/injection, schedule: Q04DX002 (ip), vehicle: Klucel (hydroxypropylcellulose) (HPC)): 92 % of control
T/C (dose: 50.0 mg/kg/injection, schedule: Q04DX002 (ip), vehicle: Klucel (hydroxypropylcellulose) (HPC)): 99 % of control
T/C (dose: 100.0 mg/kg/injection, schedule: Q04DX002 (ip), vehicle: Klucel (hydroxypropylcellulose) (HPC)): 99 % of control
T/C (dose: 200.0 mg/kg/injection, schedule: Q04DX002 (ip), vehicle: Klucel (hydroxypropylcellulose) (HPC)): 95 % of control

COc1ccc2cc1Oc1ccc(cc1)C[C@H]1c3cc(c(OC)cc3CCN1C)Oc1c(OC)c(OC)cc3c1[C@H](C2)N(C)CC3
T/C [1]: 92 % of control
T/C [2]: 101 % of control
T/C [3]: 92 % of control
T/C [11]: 94 % of control
T/C [12]: 101 % of control

CCNCCNc1ccc(NCCNCC)c2c1C(=O)c1ccccc1C2=O
T/C [4]: 179 % of control
T/C [5]: 189 % of control
T/C [6]: 163 % of control and 166 % of control
T/C [7]: 169 % of control and 177 % of control

C=C/C(C)=C/[C@H](C)C(=O)C[C@H](O)CC1CC(=O)NC(=O)C1
T/C (dose: 6.25 mg/kg/injection, schedule: Q04DX003 (ip), vehicle: saline with Tween-80): 97 % of control
T/C [1]: 100 % of control
T/C [2]: 108 % of control
T/C [3]: 109 % of control
T/C [12]: 121 % of control

OCCN1CCN(CC/C=C2/c3ccccc3Sc3ccc(C(F)(F)F)cc32)CC1
T/C (dose: 3.13 mg/kg/injection, schedule: Q04DX003 (ip), vehicle: saline): 98 % of control
T/C [13]: 91 % of control
T/C [8]: 91 % of control
